Values joined by “and” are separate entries in the source; they are usually repeats but may differ in a detail not shown here. Equal entries are not always repeated.
Experiments:
Format in all cases: functional
Mus musculus [1] = assay: Compound was evaluated for the effect on leukocyte adhesion at the dose 0.5(mg/kg); oral administration
Mus musculus [2] = assay: Compound was evaluated for the effect on leukocyte adhesion at the dose 0.2 (mg/kg); oral administration
Mus musculus [3] = assay: Compound was evaluated for the percent inhibition of PAF-induced Paw edema at the dose 1.0 (mg/kg) (Increases in paw volume is 14 uL)
Mus musculus [4] = assay: Compound was evaluated for the percent inhibition of PAF-induced Paw edema at the dose 0.5 (mg/kg) (Increases in paw volume is 30 uL)
Mus musculus [5] = assay: Compound was evaluated for the effect on leukocyte adhesion at the dose 0.05 (mg/kg); oral administration
Mus musculus [6] = assay: Compound was evaluated for the effect on leukocyte adhesion at the dose 0.1 (mg/kg); oral administration
Mus musculus [7] = assay: Compound was evaluated for the percent inhibition of arachidonic acid-induced paw edema at the dose 0.5(mg/kg)
Mus musculus [8] = assay: Compound was evaluated for the effect on leukocyte adhesion at the dose 0.01 (mg/kg); oral administration
Mus musculus [9] = assay: Compound was evaluated for the antinociceptive effects at the dose 0.25(mg/kg)
Mus musculus [10] = assay: Compound was evaluated for the cataleptic effect in the mouse at the dose 0.1(mg/kg)
Mus musculus [11] = assay: Compound was evaluated for the percent inhibition of arachidonic acid-induced paw edema at the dose 0.1(mg/kg)
Mus musculus [12] = assay: Compound was evaluated for the percent inhibition of arachidonic acid-induced paw edema at the dose 0.05(mg/kg)
Mus musculus [13] = assay: Compound was evaluated for the antinociceptive effects at the dose 0.05(mg/kg)
Mus musculus [14] = assay: Compound was evaluated for the antinociceptive effects at the dose 1.0(mg/kg)
Mus musculus [15] = assay: Compound was evaluated for the percent inhibition of arachidonic acid-induced paw edema at the dose 0.25(mg/kg)
Mus musculus [16] = assay: Compound was evaluated for the antinociceptive effects at the dose 0.1(mg/kg)
Mus musculus [17] = assay: Compound was evaluated for the antinociceptive effects at the dose 0.025(mg/kg)
Mus musculus [18] = assay: Compound was evaluated for the effect on leukocyte adhesion at the dose 0.5 (mg/kg); oral administration
Mus musculus [19] = assay: Compound was evaluated for the percent inhibition of PAF-induced Paw edema at the dose 0.25 (mg/kg) (Increases in paw volume is -14 uL)
Mus musculus [20] = assay: Compound was evaluated for the effect on leukocyte adhesion at the dose 1.0 (mg/kg); oral administration
Mus musculus [21] = assay: Compound was evaluated for the percent inhibition of PAF-induced Paw edema at the dose 0.05 (mg/kg) (Increases in paw volume is -1.2 uL)
Mus musculus [22] = assay: Compound was evaluated for the antinociceptive effects at the dose 0.5(mg/kg)
Mus musculus [23] = assay: Compound was evaluated for the percent inhibition of PAF-induced Paw edema at the dose 0.1 (mg/kg) (Increases in paw volume is -10 uL)
Mus musculus [24] = assay: Compound was evaluated for the cataleptic effect in the mouse at the dose 1.0(mg/kg)
Mus musculus [25] = assay: Compound was evaluated for the percent inhibition of PAF-induced Paw edema at the dose 0.5 (mg/kg) (Increases in paw volume is -20 uL)
Mus musculus [26] = assay: Compound was evaluated for the cataleptic effect in the mouse at the dose 5.0(mg/kg)
Mus musculus [27] = assay: Compound was evaluated for the cataleptic effect in the mouse at the dose 0.5 mg/kg
Mus musculus [28] = assay: Compound was evaluated for the effect on leukocyte adhesion at the dose 40 (mg/kg); oral administration
Mus musculus [29] = assay: Compound was evaluated for the effect on leukocyte adhesion at the dose 20 (mg/kg); oral administration
Mus musculus [30] = assay: Compound was evaluated for the cataleptic effect in the mouse at the dose 0.5(mg/kg)
Mus musculus [31] = assay: Compound was evaluated for the percent inhibition of PAF-induced Paw edema at the dose 0.05 (mg/kg) (Increases in paw volume is 10 uL)
Mus musculus [32] = assay: Compound was evaluated for the cataleptic effect in the mouse at the dose 4.0(mg/kg)
Mus musculus [33] = assay: Compound was evaluated for the percent inhibition of PAF-induced Paw edema at the dose 0.25 (mg/kg) (Increases in paw volume is 11 uL)
Mus musculus [34] = assay: Compound was evaluated for the percent inhibition of PAF-induced Paw edema at the dose 0.1 (mg/kg) (Increases in paw volume is 19 uL)
Mus musculus [35] = assay: Compound was evaluated for the percent inhibition of PAF-induced Paw edema at the dose 0.5 (mg/kg) (Increases in paw volume is 7.5 uL)
Mus musculus [36] = assay: Compound was evaluated for the cataleptic effect in the mouse at the dose 0.25(mg/kg)
Mus musculus [37] = assay: Compound was evaluated for the antinociceptive effects at the dose 4.0(mg/kg)
Mus musculus [38] = assay: Compound was evaluated for the percent inhibition of PAF-induced Paw edema at the dose 0.1 (mg/kg) (Increases in paw volume is 38 uL)
Mus musculus [39] = assay: Compound was evaluated for the antinociceptive effects at the dose 2.0(mg/kg)
Mus musculus [40] = assay: Compound was evaluated for the percent inhibition of PAF-induced Paw edema at the dose 0.5 (mg/kg) (Increases in paw volume is 28 uL)
Mus musculus [41] = assay: Compound was evaluated for the percent inhibition of PAF-induced Paw edema at the dose 0.25 (mg/kg) (Increases in paw volume is 24 uL)
Mus musculus [42] = assay: Compound was evaluated for the percent inhibition of PAF-induced Paw edema at the dose 0.5 (mg/kg) (Increases in paw volume is 44 uL)
Mus musculus [43] = assay: Compound was evaluated for the percent inhibition of PAF-induced Paw edema at the dose 1.0 (mg/kg) (Increases in paw volume is 28 uL)
Mus musculus [44] = assay: Compound was evaluated for the cataleptic effect in the mouse at the dose 40 mg/kg

## CCCCCCC(C)(C)c1cc(O)c2c(c1)OC(C)(C)[C@@H]1CC=C(CO)CC21 (some centres undefined)
Mus musculus [1]
  No. of cells: 0.59
Mus musculus [2]
  No. of cells: 0.58
Mus musculus [3]
  Inhibition: 56.3%
Mus musculus [4]
  Inhibition: 6.3%
Mus musculus [5]
  No. of cells: 1.12
Mus musculus [6]
  No. of cells: 0.94

## CCCCCCC(C)(C)c1cc(O)c2c(c1)OC(C)(C)[C@@H]1CC=C(C(=O)O)CC21 (some centres undefined)
Mus musculus [7]
  Inhibition: 73.7% and 97.4% and 100%
Mus musculus [8]
  No. of cells: 0.88
Mus musculus [9]
  Change: 33.4%
Mus musculus [10]
  Response: 5.8
Mus musculus [11]
  Inhibition: 52.6%
Mus musculus [12]
  Inhibition: 26.3%
Mus musculus [13]
  Change: 85%
Mus musculus [14]
  Change: 28.4%
Mus musculus [15]
  Inhibition: 56.4%
Mus musculus [16]
  Change: 68.3%
Mus musculus [17]
  Change: 20.8%
Mus musculus [18]
  No. of cells: 0.87
Mus musculus [19]
  Inhibition: 150%
Mus musculus [20]
  No. of cells: 0.3
Mus musculus [21]
  Inhibition: 101%
Mus musculus [22]
  Change: 34%
Mus musculus [5]
  No. of cells: 1.34
Mus musculus [23]
  Inhibition: 135%
Mus musculus [24]
  Response: 12.2
Mus musculus [25]
  Inhibition: 171%
Mus musculus [6]
  No. of cells: 0.64

## CCCCCc1cc(O)c2c(c1)OC(C)(C)[C@H]1C(C(=O)O)CC(C)=CC21 (some centres undefined)
Mus musculus [26]
  No. of cells: 10.1
Mus musculus [27]
  No. of cells: 10
Mus musculus [28]
  No. of cells: 0.55
Mus musculus [29]
  No. of cells: 0.67

## CCCCCCC(C)(C)c1cc(O)c2c(c1)OC(C)(C)C1CC=C(C(=O)O)C[C@H]21 (some centres undefined)
Mus musculus [7]
  Inhibition: 47.4%
Mus musculus [8]
  No. of cells: 1.34
Mus musculus [30]
  Response: 13.8
Mus musculus [9]
  Change: 61.5%
Mus musculus [11]
  Inhibition: 65.8%
Mus musculus [12]
  Inhibition: 42.1%
Mus musculus [31]
  Inhibition: 44.4%
Mus musculus [13]
  Change: 61.7%
Mus musculus [32]
  Response: 8.7
Mus musculus [14]
  Change: 14.7%
Mus musculus [15]
  Inhibition: 52.6%
Mus musculus [33]
  Inhibition: 31.9%
Mus musculus [16]
  Change: 49.5%
Mus musculus [34]
  Inhibition: 38.7%
Mus musculus [17]
  Change: 10.3%
Mus musculus [18]
  No. of cells: 1.46
Mus musculus [20]
  No. of cells: 0.7
Mus musculus [22]
  Change: 51.7%
Mus musculus [5]
  No. of cells: 1.29
Mus musculus [35]
  Inhibition: 60.1%
Mus musculus [24]
  Response: 10.4
Mus musculus [36]
  Response: 12.3
Mus musculus [6]
  No. of cells: 1.38

## CCCCCCC(C)(C)c1cc(O)c2c(c1)OC(C)(C)C1CC=C(C(=O)OC)C[C@H]21 (some centres undefined)
Mus musculus [9]
  Change: 10.4%
Mus musculus [37]
  Change: 3.1%
Mus musculus [14]
  Change: 61.4%
Mus musculus [38]
  Inhibition: -44.2%
Mus musculus [39]
  Change: 37.5%
Mus musculus [22]
  Change: 49%
Mus musculus [40]
  Inhibition: -7.5%
Mus musculus [41]
  Inhibition: 7.6%

## CCCCCCC(C)(C)c1cc(O)c2c(c1)OC(C)(C)C1CC=C(CO)C[C@H]21 (some centres undefined)
Mus musculus [42]
  Inhibition: -37.5%
Mus musculus [18]
  No. of cells: 0.64
Mus musculus [20]
  No. of cells: 0.59
Mus musculus [5]
  No. of cells: 1.09
Mus musculus [43]
  Inhibition: 21.8%
Mus musculus [6]
  No. of cells: 0.44

## CCCCCCC(C)(C)c1cc(O)c2c(c1)OC(C)(C)[C@@H]1CC=C(C(=O)OC)CC21 (some centres undefined)
Mus musculus [39]
  Change: 42.9%
Mus musculus [33]
  Inhibition: 63.9%
Mus musculus [34]
  Inhibition: 69.3%
Mus musculus [22]
  Change: -2.8%
Mus musculus [35]
  Inhibition: 76%

## CCCCCc1cc(O)c2c(c1)OC(C)(C)[C@@H]1CCC(C)=C[C@@H]21 [DRONABINOL]
Mus musculus [44]
  Cataleptic effect: 48.9

Reference: ChEMBL document CHEMBL1125531, “Synthetic nonpsychotropic cannabinoids with potent antiinflammatory, analgesic, and leukocyte antiadhesion activities” (1992)
